Molecular target: T1, USP30 (Homo sapiens, UniProt Q70CQ3)
T1 construct: We next determined cellular engagement of endogenous USP30 with IMP-2587 or IMP-2586; endogenous in cells; host or cells: HEK293T
T1 sequence (Q70CQ3 1-517): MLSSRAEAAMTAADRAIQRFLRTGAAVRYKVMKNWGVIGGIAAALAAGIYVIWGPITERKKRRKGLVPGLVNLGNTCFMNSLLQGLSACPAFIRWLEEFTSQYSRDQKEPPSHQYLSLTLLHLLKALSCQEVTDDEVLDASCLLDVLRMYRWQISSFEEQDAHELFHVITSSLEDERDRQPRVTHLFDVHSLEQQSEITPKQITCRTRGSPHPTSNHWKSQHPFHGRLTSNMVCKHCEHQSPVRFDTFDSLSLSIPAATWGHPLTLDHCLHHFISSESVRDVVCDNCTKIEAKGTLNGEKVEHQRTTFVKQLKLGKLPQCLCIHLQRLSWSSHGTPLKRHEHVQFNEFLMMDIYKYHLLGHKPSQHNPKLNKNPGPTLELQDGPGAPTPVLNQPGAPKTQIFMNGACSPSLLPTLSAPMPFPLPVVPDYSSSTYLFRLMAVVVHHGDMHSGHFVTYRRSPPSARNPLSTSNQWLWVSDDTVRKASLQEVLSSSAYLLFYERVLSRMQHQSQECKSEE
Test: Direct target engagement in HEK293T cells: CuAAC ligation and in-gel fluorescence
Type: cell-based
Conditions: for probe concentration for detection of USP30 activity in intact cells: following 1 hour incubation
Method: We next determined cellular engagement of endogenous USP30 with IMP-2587 or IMP-2586. […] In-cell concentration-dependent competition by IMP-2587 and IMP-2586 for USP30 were confirmed below 100 nM probe (Fig. 2b and c), whilst engagement of an exemplar unrelated DUB, UCHL1, occurred only at a much higher concentration (30 000 nM). We hypothesise that incomplete modification of USP30 by HA-Ub-VME is likely due to limited retention of USP30 activity in cell lysates, which have likely had the USP30 transmembrane domain compromised, highlighting the potential utility of a small molecule USP30 ABP applicable directly in intact cells. Direct USP30 target engagement by IMP-2587 and IMP-2586 was confirmed in HEK293T cells following 1 h probe treatment followed by cell lysis and CuAAC bio-orthogonal ligation to capture reagent azido-TAMRA-biotin (AzTB) for IMP-2587 or alkyne-TAMRA-biotin for IMP-2586 (Fig. 3a).[27] […] This unspecific background labelling is presumably due to the previously reported higher off-target CuAAC reactivity of an alkyne-bearing capture reagent, applied here due to incorporation of an azide tag in IMP-2586.[28] Moreover, the labelling of USP30 was further confirmed by biotin pulldown and immunoblotting. […]
d) Live cell probe incubation, lysate click chemistry and precipitation 6-well HEK293T cells were incubated with media containing compounds ABP 2 and ABP 4 at indicated concentrations for 1 h at 37 °C. The cells were washed with PBS and lysed with lysis buffer (50 μL (1% (v/v) Triton X-100, 0.1% (w/v) sodium dodecyl sulfate (SDS), EDTA-free complete protease inhibitor cocktail (1×, Roche) in PBS on ice for 10 min. The lysates were scraped and transferred to corresponding Lo-Bind Eppendorfs. Each lysate was sonicated for 1 minute, and the samples centrifuges at 5,000 x g at 4 °C for 5 minutes to pellet insoluble cellular debris. The supernatant was collected, and protein concentration was determined using the DC Protein Assay (Bio-Rad) as per manufacturer’s instructions, and normalised to lowest concentrated sample (e.g. 1 mg/mL, using lysis buffer). The following “click mixture” was prepared separately, preparing 6 μL for every 100 μL of […]
Capture reagent (AzRB/AzT for ABP 2, YnT/YnB for ABP 4 10 mM in DMSO, 1 vol; final concentration […]
The lysate samples (10-20 μg) were mixed with 4× Laemmli sample loading buffer (250 mM Tris -HCl pH 6.8, 30% (v/v) glycerol, 10% (w/v) SDS, 0.05% (w/v) bromophenol blue) supplemented with 20% v/v β-mercaptoethanol (BME) and boiled for 10 min at 95 °C. […] Gel were imaged on a Typhoon imager (GE Healthcare; λEx 532 nm, λEm 575 nm for TAMRA. For protein loading quantification, gels were stained with Coomassie blue staining solution overnight, rinsed with water and imaged on an ImageQuant™ […]

[1] = HEK293T, 1 h probe treatment, CuAAC to AzTB

Compound | lowest probe concentration showing major band at ca. 60 kDa (in-gel fluorescence) [1] | probe concentration above which additional bands are labelled (in-gel fluorescence) [1] | probe concentration for detection of USP30 activity in intact cells
C#Cc1cccc(-c2cc(NC(=O)CC3CCN(C#N)C3)on2)c1 (stereo not shown) [IMP-2587] | 3 nM | above 30 nM | 3 to 10 nM
N#CN1CC[C@@H](NC(=O)c2cc(-c3ccccc3Oc3ccc(N=[N+]=[N-])cc3)n[nH]2)C1 [IMP-2586] | – | – | 3 to 10 nM

Source: publication PMC11078216, “Discovery of potent and selective activity-based probes (ABPs) for the deubiquitinating enzyme USP30” (RSC Chemical Biology, 2024)
